Entries after “also recorded” stand apart in the source; their conditions may differ. Counter-ions that a name gives are not always drawn.
Tests used:
[1] = tested on: mouse embryonic fibroblast C3H/10T 1/2 cells; test: Gap junctional communication assay (Lucifer Yellow dye transfer); type: cell-based; details: 1×10^-5 M in 1:2 EtOH/H2O, 4 days; for extent of junctional communication: vs solvent controls
Experimental: A series of experiments were performed to assess the ability of the disodium salt disuccinate astaxanthin derivatives XVI to induce gap junctional communication (GJC) in an immortalized line of murine fibroblasts. Studies were conducted: • (1) at the functional level to measure cell/cell communication by increased dye transfer between confluent cells in monolayer culture; • (2) at the molecular level as measured by the ability of these compounds to induce expression of connexin43 (Cx43) protein. Cx43 is the structural unit of the intercellular channels in these fibroblasts that allows GJC; • (3) at the cellular level as shown by the ability of the disodium salt disuccinate astaxanthin derivatives XVI to increase the number and size of Cx43 immunoreactive plaques in regions of the plasma membrane in direct contact with adjacent cells. (1) Communication Assays. Experiments were performed to assess the ability of the disodium salt disuccinate astaxanthin derivative XVI [as a statistical mixture of the all-trans (all-E) stereoisomers, 3S,3′S, meso, and 3R,3′R in 1:2:1 ratio] to enhance gap junctional intercellular communication (GJC) between mouse embryonic fibroblast C3H/10T 1/2 cells. This ability has been previously highly correlated with the ability of carotenoids to inhibit carcinogen-induced neoplastic transformation (Zhang, 1992). Moreover, Cx43-mediated junctional communication between cardiac myocytes is responsible for transfer of signals that maintain synchronous contractions and prevent cardiac arrhythmias (Peters, 1995). Junctional permeability was assayed by microinjection of the fluorescent dye Lucifer Yellow CH (Sigma, St. Louis, Mo.) into individual confluent cells essentially as described previously (Zhang, 1994). […] Successful injection of Lucifer Yellow was confirmed by brief illumination with UV light, which causes yellow fluorescence of Lucifer Yellow. […] The number of fluorescent cells adjacent to the injected cell was later determined by digital image analysis using an unbiased density threshold method and the SigmaScan software program (Jandel Scientific). […]

[2] = tested on: male ICR mice; test: LPS/galactosamine-induced liver injury (plasma ALT); type: in vivo, mouse; details: for LPS-induced ALT elevation: 500 mg/kg oral gavage in emulsion 2 hours before LPS/D-galactosamine IP, 5 hours
Experimental: Three-month old male ICR mice were treated with LPS and galactosamine in order to induce liver injury (Leist, 1995). Mice were first orally gavaged with either an olive oil/water/lecithin emulsion (10 mL/kg, or 0.3 mL for a 30 gram mouse), or the same emulsion containing the disodium disuccinate astaxanthin derivative XVI (50 mg/mL) for a final disodium disuccinate astaxanthin dose of 500 mg/kg. Two hours later mice were injected intraperitoneally (IP) with either saline (10 mL/kg) or a solution of E. coli LPS (3 mg/kg, Sigma catalog number L-3755) and D-galactosamine (700 mg/kg). Animals were sacrificed by carbon dioxide (CO2) asphyxiation 5 hours after the IP injection, and plasma was then collected for ALT determination.

[3] = tested on: connexin 43 protein expression; test: Induction of connexin 43 protein expression (Western blot, 96 hours); type: cell-based, mouse; details: 96 hours
Experimental: In brief, mouse embryonic fibroblast CH3/10T^1/2 cells were treated with the following formulations in a 4 mL cell culture system with media containing 2% calf serum: • 1. TTNPB [p-(E)-2-(5,6,7,8-tetrahydro-5,5,8,8-tetramethyl-2-napthyl) propenyl benzoic acid] 10^−8 M in acetone [positive control for connexin 43 upregulation (4 μL in 4 mL] • 2. Disodium salt disuccinate astaxanthin derivative XVI/H2O at 10^−5 M (40 μl in 4 mL) • 3. Disodium salt disuccinate astaxanthin derivative XVI/H2O at 10^−6 M (4 μl in 4 mL) • 4. Disodium salt disuccinate astaxanthin derivative XVI/H2O at 10^−7 M (1:10 dilution and 4 μl in 4 mL) • 5. Disodium salt disuccinate astaxanthin derivative XVI H2O/ethanol [EtOH] formulation at 10^-5 M (40 μl in 4 mL) • 6. Disodium salt disuccinate astaxanthin derivative XVI H2O/EtOH formulation at 10^−6 M (4 μl in 4 mL) • 7. Sterile H2O control (40 μl in 4 mL) • 8. Sterile H2O/EtOH control (20 μL EtOH, 20 μL H2O in 4 mL) • 9. Media control (4 mL)
Cells were harvested after 96 hours incubation with test compounds and control solutions. All media solutions were identical in color, however after treatment with the disodium salt disuccinate astaxanthin derivative XVI at both 10^−5 dilutions, the color subjectively changed to an orange-red color. Cells treated with TTNPB appeared striated with light microscopy, evidence of differentiation to myocytes, an expected result in this cell culture system. After harvest and pelleting of cells, tubes containing both 10^−5 disodium salt disuccinate astaxanthin derivative XVI solutions were bright red; both 10^−6 dilution tubes were a pink color. As documented previously for other colored carotenoids, this was subjective evidence for cellular uptake of the test compounds.
Cells were then lysed, and 50 μg of each protein was electrophoresed on a 10% polyacrylamide gel. The gel was then transferred to a nitrocellulose filter. Total protein was assayed with Coomassie blue staining (FIG. 29; lanes 6, 7, and 9 were smeared secondary to gel transfer, and were not included in the quantitative comparison [FIG. 31)]. […]

Structure (SMILES): CC1=C(/C=C/C(C)=C/C=C/C(C)=C/C=C/C=C(C)/C=C/C=C(C)/C=C/C2=C(C)C(=O)C(OC(=O)CCC(=O)O)CC2(C)C)C(C)(C)CC(OC(=O)CCC(=O)O)C1=O (racemic) [XVI, Disodium Salt of the Disuccinic Acid Ester of Astaxanthin]
- microinjected treated cells functionally coupled by gap junctions ([1]; 15 of 22 cells, control 27%): 56%
- extent of junctional communication [1]: effectively increased the extent of junctional communication
- extent of junctional communication ([1]; listed as disodium salt disuccinate astaxanthin derivative): induces functional gap junctional communication
- LPS-induced ALT elevation [2]: substantially reduced
- LPS-induced ALT elevation ([2]; listed as disodium disuccinate astaxanthin derivative): reduced induced levels of ALT
- effect on plasma ALT in saline injected (sham-treated) animals ([2]; 500 mg/kg oral gavage in emulsion, listed as disodium disuccinate astaxanthin derivative): no effect on plasma ALT; also recorded: no effect on background levels of ALT
- induction of connexin 43 protein expression ([3]; water 10^-5 to 10^-7 M and EtOH/H2O formulations, vs water and ethanol/water controls): induced connexin 43 protein expression
- connexin 43 induction level compared with TTNPB positive control ([3]; in water at concentrations greater than 10^-7 and in ethanol/water at 10^-5): higher inductions levels than the positive TTNPB control

Source: patent US7345091B2, “Carotenoid ether analogs or derivatives for the inhibition and amelioration of disease” (Cardax Pharmaceuticals, Inc., priority 2002, dated 2008)
